# Measurements reported in article PMC3701070 (PLoS ONE, 2013).
# What was measured:
# Experiment in all cases: Cell growth assay
# Assay type in all cases: cell-based
# EB-3 = details: Homo sapiens, 72 h; EB-3, RAF WT, RAS WT, 3-day; read-out: gIC50
# Method: (§1) Growth was measured with CellTiter-Glo® (Promega) reagent per the manufacturer’s protocol, using a PerkinElmer EnVision™ reader at t = 0 and 72 h. IC50 values for cell growth inhibition (gIC50) were determined.
# (§2) (PDF) Click here for additional data file.
# JRT3-T35 = details: Homo sapiens, J-RT3-T3-5, 72 h; JRT3-T35, RAF WT, RAS WT, 3-day; read-out: gIC50
# Method: as §1, §2
# U2OS = details: Homo sapiens, 72 h, RAF WT, RAS WT, 3-day, read-out: gIC50
# Method: as §1, §2
# HT-3 = details: Homo sapiens, 72 h; HT-3, RAF WT, RAS WT, 3-day; read-out: gIC50
# Method: as §1, §2
# SK-MES-1 = details: Homo sapiens, 72 h; SK-MES-1, RAF WT, RAS WT, 3-day; read-out: gIC50
# Method: as §1, §2
# SK-LMS-1 = details: Homo sapiens, 72 h; SK-LMS-1, RAF WT, RAS WT, 3-day; read-out: gIC50
# Method: as §1, §2
# HT = details: Homo sapiens, 72 h, RAF WT, RAS WT, 3-day, read-out: gIC50
# Method: as §1, §2
# NCI-H1792 = details: Homo sapiens, 72 h; NCI-H1792, RAF WT, RAS WT, 3-day; read-out: gIC50
# Method: as §1, §2
# NCI-H1563 = details: Homo sapiens, 72 h; NCI-H1563, RAF WT, RAS WT, 3-day; read-out: gIC50
# Method: as §1, §2
# NCI-H520 = details: Homo sapiens, 72 h; NCI-H520, RAF WT, RAS WT, 3-day; read-out: gIC50
# Method: as §1, §2
# 22Rv1 = details: Homo sapiens, 72 h; 22Rv1, RAF WT, RAS WT, 3-day; read-out: gIC50
# Method: as §1, §2
# HuNS-1 = details: Homo sapiens, HuNS1, 72 h; HuNS-1, RAF WT, RAS WT, 3-day; read-out: gIC50
# Method: as §1, §2
# NCI-H2052 = details: Homo sapiens, 72 h; NCI-H2052, RAF WT, RAS WT, 3-day; read-out: gIC50
# Method: as §1, §2
# SW684 = details: Homo sapiens, 72 h; SW684, RAF WT, RAS WT, 3-day; read-out: gIC50
# Method: as §1, §2
# Be(2)C = details: Homo sapiens, 72 h, RAF WT, RAS WT, 3-day, read-out: gIC50
# Method: as §1, §2
# SK-N-F1 = details: Homo sapiens, 72 h; SK-N-F1, RAF WT, RAS WT, 3-day; read-out: gIC50
# Method: as §1, §2
# SNU-1 = details: Homo sapiens, SNU1, 72 h; SNU-1, RAF WT, RAS WT, 3-day; read-out: gIC50
# Method: as §1, §2
# OVCAR-5 = details: Homo sapiens, 72 h; OVCAR-5, RAF WT, RAS WT, 3-day; read-out: gIC50
# Method: as §1, §2
# A2780 = details: Homo sapiens, 72 h; A2780, RAF WT, RAS WT, 3-day; read-out: gIC50
# Method: as §1, §2
# A101D = details: Homo sapiens, 72 h, BRAF(V600E), RAS WT, 3-day, read-out: gIC50
# Method: as §1, §2
# SH-4 = details: Homo sapiens, 72 h; SH-4, BRAF(V600E), RAS WT, 3-day; read-out: gIC50
# Method: as §1, §2
# SNU-5 = details: Homo sapiens, 72 h; SNU-5, RAF WT, RAS WT, 3-day; read-out: gIC50
# Method: as §1, §2
# DLD-1 = details: Homo sapiens, 72 h; DLD-1, RAF WT, KRAS(G13D), 3-day; read-out: gIC50
# Method: as §1, §2
# SK-N-DZ(note) = details: Homo sapiens, 72 h, RAF WT, RAS WT, 3-day, read-out: gIC50
# Method: as §1, §2
# SW756 = details: Homo sapiens, 72 h; SW756, RAF WT, KRAS(G12C), 3-day; read-out: gIC50
# Method: as §1, §2
# NCI-H508 = details: Homo sapiens, 72 h; NCI-H508, BRAF(G596R), RAS WT, 3-day; read-out: gIC50
# Method: as §1, §2
# 647-V = details: Homo sapiens, 72 h, RAF WT, RAS WT, 3-day, read-out: gIC50
# Method: as §1, §2
# RL = details: Homo sapiens, 72 h, RAF WT, RAS WT, 3-day, read-out: gIC50
# Method: as §1, §2
# Daudi = details: Homo sapiens, 72 h, RAF WT, RAS WT, 3-day, read-out: gIC50
# Method: as §1, §2
# SCLC-3 = details: Homo sapiens, 72 h; SCLC-3, RAF WT, RAS WT, 3-day; read-out: gIC50
# Method: as §1, §2
# OE-33 = details: Homo sapiens, OE33, 72 h; OE-33, RAF WT, RAS WT, 3-day; read-out: gIC50
# Method: as §1, §2
# MALME-3M = details: Homo sapiens, 72 h, BRAF(V600E), RAS WT, 3-day, read-out: gIC50
# Method: as §1, §2
# LNCaP = details: Homo sapiens, 72 h, RAF WT, RAS WT, 3-day, read-out: gIC50
# Method: as §1, §2
# NCI-H747 = details: Homo sapiens, 72 h; NCI-H747, RAF WT, KRAS(G13D), 3-day; read-out: gIC50
# Method: as §1, §2
compound,measurement,setting,value
CC(C)(C)c1nc(-c2cccc(NS(=O)(=O)c3c(F)cccc3F)c2F)c(-c2ccnc(N)n2)s1 [dabrafenib],IC50,EB-3,> 10 µM
same,IC50,JRT3-T35,0.295 µM
same,IC50,U2OS,> 10 µM
same,IC50,HT-3,> 10 µM
same,IC50,SK-MES-1,0.329 µM
same,IC50,SK-LMS-1,> 10 µM
same,IC50,HT,> 10 µM
same,IC50,NCI-H1792,> 10 µM
same,IC50,NCI-H1563,> 10 µM
same,IC50,NCI-H520,> 10 µM
same,IC50,22Rv1,> 10 µM
same,IC50,HuNS-1,> 10 µM
same,IC50,NCI-H2052,> 10 µM
same,IC50,SW684,> 10 µM
same,IC50,Be(2)C,> 10 µM
same,IC50,SK-N-F1,> 10 µM
same,IC50,SNU-1,1.5 µM
same,IC50,OVCAR-5,> 10 µM
same,IC50,A2780,> 10 µM
same,IC50,A101D,0.009 µM
same,IC50,SH-4,0.008 µM
same,IC50,SNU-5,> 10 µM
same,IC50,DLD-1,> 10 µM
same,IC50,SK-N-DZ(note),> 10 µM
same,IC50,SW756,> 10 µM
same,IC50,NCI-H508,> 10 µM
same,IC50,647-V,> 10 µM
same,IC50,RL,> 10 µM
same,IC50,Daudi,> 10 µM
same,IC50,SCLC-3,> 10 µM
same,IC50,OE-33,> 10 µM
same,IC50,MALME-3M,0.001 µM
same,IC50,LNCaP,> 10 µM
same,IC50,NCI-H747,> 10 µM
